Legend:
Assay in all cases: relative viability (nuclei count vs DMSO), 5 days (fraction); higher = more cells survive
[1] = compound: Cn1nnc2c(C(N)=O)ncn2c1=O [Temozolomide] + CS(=O)(=O)CCNCc1ccc(-c2ccc3ncnc(Nc4ccc(OCc5cccc(F)c5)c(Cl)c4)c3c2)o1 [Lapatinib] (partner 2 µM)
Summary of the method: (§1)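 One day after seeding in 1536-well plates, lung cancer cell lines were dosed by pin tool. Dosing was either single-drug or a fixed anchor-drug dose plus five library-drug doses (not always all listed) in √10 steps. After 5 days, nuclei were stained in one fix-and-stain step and counted on 4× images, and relative viability is the nuclei count of treated wells over that of vehicle wells, given as the median of duplicate plates.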

[2] = compound: C[C@@H](C(=O)N[C@@H](C1CCCCC1)C(=O)N2CCC[C@H]2C(=O)N[C@@H]3[C@@H](CC4=CC=CC=C34)OCC#CC#CCO[C@@H]5CC6=CC=CC=C6[C@@H]5NC(=O)[C@@H]7CCCN7C(=O)[C@H](C8CCCCC8)NC(=O)[C@H](C)NC)NC [AZD5582] + Cc1cc(Nc2cc(N3CCN(C)CC3)nc(Sc3ccc(NC(=O)C4CC4)cc3)n2)n[nH]1 [Tozasertib] (partner 0.1 µM)
Summary of the method: as §1

[3] = compound: Cn1nnc2c(C(N)=O)ncn2c1=O [Temozolomide] + CC(C)C[C@H](NC(=O)[C@H](Cc1ccccc1)NC(=O)c1cnccn1)B(O)O [Bortezomib] (partner 0.002 µM)
Summary of the method: as §1

[4] = compound: C[C@@H](C(=O)N[C@@H](C1CCCCC1)C(=O)N2CCC[C@H]2C(=O)N[C@@H]3[C@@H](CC4=CC=CC=C34)OCC#CC#CCO[C@@H]5CC6=CC=CC=C6[C@@H]5NC(=O)[C@@H]7CCCN7C(=O)[C@H](C8CCCCC8)NC(=O)[C@H](C)NC)NC [AZD5582] + N=C(N)NC(=N)NCCc1ccccc1 [Phenformin] (partner 250 µM)
Summary of the method: as §1

| Cell Line | relative viability ([1]; first compound 0.2 µM) | relative viability ([1]; first compound 0.6325 µM) | relative viability ([1]; first compound 2 µM) | relative viability ([1]; first compound 6.325 µM) | relative viability ([1]; first compound 20 µM) | relative viability ([2]; first compound 0.001581 µM) | relative viability ([2]; first compound 0.005 µM) | relative viability ([2]; first compound 0.01581 µM) | relative viability ([2]; first compound 0.05 µM) | relative viability ([3]; first compound 0.2 µM) | relative viability ([3]; first compound 0.6325 µM) | relative viability ([3]; first compound 2 µM) | relative viability ([3]; first compound 6.325 µM) | relative viability ([3]; first compound 20 µM) | relative viability ([4]; first compound 0.001581 µM) | relative viability ([4]; first compound 0.005 µM) | relative viability ([4]; first compound 0.01581 µM) | relative viability ([4]; first compound 0.05 µM) |
| --- | --- | --- | --- | --- | --- | --- | --- | --- | --- | --- | --- | --- | --- | --- | --- | --- | --- | --- |
| SW 1573 | 1.13 | 1.17 | 1.04 | 0.897 | 1.02 | 0.188 | 0.192 | 0.164 | 0.255 | 0.949 | 1.12 | 1.05 | 1.19 | 1.18 | 0.394 | 0.466 | 0.37 | 0.499 |
| UMC-11 | 1.09 | 1.06 | 1.09 | 0.894 | 0.685 | 0.207 | 0.203 | 0.196 | 0.203 | 0.861 | 0.924 | 0.945 | 0.519 | 0.377 | 0.281 | 0.301 | 0.298 | 0.412 |
